Legend:
[1] = molecular target: T1, transactivation domain of HPV11 E2 (TAD) (Human papillomavirus 11, UniProt P04015); assay: HPV E2 transactivation domain (TAD) ligand displacement assay; assay type: binding
T1 construct: HPV11 E2 amino acids 2* -215 (*Met-1 removed); made in house; host or cells: E. coli BL21 (DE3)pLysS, plasmid pET23a(+)
Source text: This assay measures the binding of a radiolabeled compound (“probe”) to the transactivation domain of HPV11 E2 (TAD). The protein binds to Ni-coated Flash plates, and the measured signal being proportional to the concentration of bound probe. If a test compound binds to the TAD, it will displace the probe, which will result in a lower signal.
(§1) HPV-11 TAD: HPV11 E2 amino acids 2* -215 (*Met-1 removed) with an amino terminal epitope tag derived from the T7 phage gene 10 protein and a C-terminal His tag (SEQ ID NO.2). Total MW is 27 kDa.
25 mM MOPS, pH 7.0; 100 mM NaCl; 1 mM DTT; 0.0025% Tween-20. The pH was verified before adding DTT and Tween, and was adjusted where necessary. […]
TAD was diluted to 300 nM in assay buffer and used 20 μL […] dilution per well. […] This has a measurable effect on signal: background but little effect on z′ or measured inhibition (J.-H. Zhang, et al., 1999, J. Biomolecular Screening v4(2), 67-73). […]
The assay was performed in 96-well FlashPlates (PE/NEN). […] Plates were then sealed with TopCount-compatible sealing film, shaken briefly, incubated at room temperature, then counted on the TopCount after 3 hrs and again at 20 hrs.
The assay was run as described in Example 6. For each inhibitor concentration, the percent inhibition observed was calculated and the resulting inhibition curve was fit to a logistic using SAS. […]

[2] = molecular target: T1, transactivation domain of HPV11 E2 (TAD); assay: isothermal titration calorimetry of probe binding to the TAD; conditions: isothermal titration calorimetry with its non-tritiated homolog
Experimental: Radiolabeled probe: The tritium labeled probe 1j binds to the TAD with a Kd of 40 nM, as determined by isothermal titration calorimetry with its non-tritiated homolog.
as §1

T1 sequence (P04015 2-215): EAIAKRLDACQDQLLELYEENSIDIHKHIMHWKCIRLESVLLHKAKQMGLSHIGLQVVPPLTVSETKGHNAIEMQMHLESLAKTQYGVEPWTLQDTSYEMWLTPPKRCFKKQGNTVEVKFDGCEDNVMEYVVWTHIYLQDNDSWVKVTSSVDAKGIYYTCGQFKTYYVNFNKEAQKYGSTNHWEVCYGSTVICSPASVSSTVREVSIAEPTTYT

SMILES: O=C(Nc1ccc2c(c1)OCO2)C1C(c2ccc(Cl)cc2)OC2(C(=O)c3ccccc3C2=O)C1C(=O)O (racemic) [Compound 3h]
- IC50 ([1]; counting at 20 hours, 50 nM TAD, 25 nM probe, FIG. 5): 4 ± 0.6 µM
- IC50 ([1]; standard inhibitor, racemic mixture): ~10 µM

SMILES: CC(=O)NCc1ccc(N2C(=O)[C@H]3[C@@H](C2=O)[C@@]2(O[C@H]3c3ccc(Br)c(Br)c3)C(=O)c3cc(C)sc3C2=O)cc1 [Compound 1j]
- Kd [2]: 0.04 µM

Source: patent US6825176B2, “E2 displacement assay for identifying inhibitors of HPV” (Boehringer Ingelheim (Canada) Ltd., priority 2002, dated 2004)
